Measured values reported in patent publication US5128242A, “Hypothalamic polypeptides with adenylate cyclase stimulating activity” (The Administrators of the Tulane Educational Fund, priority 1989, dated 1992).
Entries after “also recorded” stand apart in the source; their conditions may differ. Ends that are not written are not given here.

What was measured:
[1] = system: rat pituitary cell cultures; assay: Intracellular cAMP accumulation in cultured pituitary cells; format: cell-based; conditions: temporal changes, concentration not given
Description: FIG. 6a. Intracellular cAMP accumulation in cultured pituitary cells.
We also determined temporal changes in intracellular cAMP levels in rat pituitary cell cultures.

adenylate cyclase = conditions: rat pituitary cell cultures
Method: Primary monolayer rat anterior pituitary cell culture was prepared as described previously (Culler et al., 1984). Anterior pituitaries from CD strain female rats of approximately 200 g bw (Charles River Breeding Labs, Wilmington, Mass.) at a random stage of estrous cycle were enzymatically dispersed with collagenase Type II and DNAse II. Dispersed cells were collected by centrifugation and washed three times with HEPES buffer and finally suspended in Dulbecco,s modified Eagle's medium (DMEM) containing 10% horse serum, 2.5% fetal calf serum and 1% antibiotic antimycotic solution (Gibco/Life Technologies, Grand Isle, NY) The cells are plated in 24-multiwell tissue culture plates (Falcon, Oxnard, Calif.) at a density of 1.5×10^5 cells/ml/well, and then incubated at 37° C. in a water-saturated atmosphere of 95% air 5% CO2 for 4 days. Prior to acute stimulation, cultured cells were incubated for 3 hr in serum-free DMEM with two changes of the medium. The cells were then incubated for 3 hr in 0.5 ml of HEPES-buffered DMEM containing test materials. Ascorbic acid (2.5×10^-4 M) and 0.25% BSA were routinely added to the medium during assay incubation in order to prevent possible oxidation and adsorption of test samples. […]
Cyclic AMP in the culture media was determined by RIA as described by Harper and Brooker (J. Cyclic Nucleo. Res. 1:207, 1975). […]

[2] = system: superfused pituitary cells; assay: Superfusion method using rat pituitary cell column: release of pituitary hormones; format: cell-based
Method: FIGS. 5A-5D. The effect of synthetic PACAP38 on the release of pituitary hormones from superfused pituitary cells. A pituitary cell superfusion method to determine the hypophysiotropic activity of samples was conducted as reported by Vigh and Schally. The peptide was applied as a 3 min pulse. The numbers at top indicate; 1,7: 100 mM KCl, 2: 10^-10 M PACAP38, 3: 10^-9 M PACAP38, 4: 10^-8 M PACAP38, 5: 10^-7 M PACAP38, 6: 10^-6 M PACAP38. 0.9 ml fractions were collected every 3 min.
A pituitary cell superfusion method to determine the hypophysiotropic activity of samples was conducted as reported by Vigh and Schally (1984). Pituitaries obtained from 3 adult female rats were cut into small pieces and incubated in a Dubnoff incubator for 45 min at 37° C. in 10 ml of oxygenated Medium 199 (Gibco/Life Technologies) containing 0.5% collagenase (Sigma Type I), 0.25% BSA and […] gentamicin sulphate (Sigma). After this incubation, there were no apparent changes in the pituitary tissue, but the fragments could be easily dispersed into single cells by repeated suction and expulsion from a Pasteur pipet. After 30 to 60 pipet operations, the tissue fell apart. The cell suspension was centrifuged at room temperature for 10 min at 100×g. The cell pellet was then resuspended in 1.0 ml medium. A small aliquot was diluted to count the cells, and the remainder of the suspension was divided into 2 equal volumes. Each volume (containing about 5×10^6 cells and usually between 3.5 and 7.0×10^6) was mixed with 0.5 ml Sephadex G-15 which had been equilibrated with previously oxygenated medium. The mixture of pituitary cells and Sephadex was transferred into 2 chambers of the superfusion apparatus and perfused with the medium. The medium was always freshly prepared in a way similar to that for enzymatic dispersion, omitting the collagenase, then passed through a Millipore filter, and continuously gassed with a mixture of O2 (95%) and CO2 (5%) during the experiment. The flow rate of the medium through the superfusion system was controlled by a multichannel pump (Gilson Minipulse Type HP-8) which was placed behind the superfusion chamber; the tuning of the lower plunger was connected to the pump, and from there to a two-channel fraction collector. Thus, the system was operated with negative pressure in order to get fewer fluctuations in the flow rate. Samples were applied as a 3 min pulse followed by the medium superfusion. Superfusate was collected as 3 min fractions, 0.9 ml per fraction.

arterial blood pressure = assay: Determination of depressor activity (arterial blood pressure) in urethane-anesthetized rats; format: in vivo, rat; conditions: for vasodepressor activity: urethane-anaesthetized rats, dose range 0.33 nmole to 1.0 nmole
Method: Arterial blood pressure was measured in urethane (150 mg/100 g ip) anesthetized adult male rats. Polyethylene tubing (PE50) which was connected with a pressure transducer P-1000 B (Narco Bio-Systems) was inserted into the femoral artery. Blood pressure was recorded using Narcotrace 40. Another polyethylene tube (PE50) was inserted into a femoral vein for injection of test materials dissolved in 0.5 ml 0.9% saline.

neurons [3] = assay: Intracellular cAMP accumulation in cultured neurons; format: cell-based, rat; conditions: for intracellular cAMP response in neurons: 10^-9 M added to culture medium
Method: FIG. 6c. Intracellular cAMP accumulation in cultured neurons.
(§1) For studies on neurons, rat neuronal cell cultures were prepared by the method described by Raizada et al. (Raizada et al. Am. J. Physiol. 247:C364, 1984). Astrocyte cultures were prepared using the single-step transfer method as described by Clarke et al. (Clark et al., J. Biol. Chem. 259:11672, 1984). […] Intracellular cAMP levels remained elevated for at least 60 minutes in astrocytes, but began to decrease after 10 min in neurons.

astrocytes = assay: Intracellular cAMP accumulation in cultured astrocytes; format: cell-based, rat; conditions: for intracellular cAMP response in astrocytes: 10^-9 M added to culture medium
Method: FIG. 6b. Intracellular cAMP accumulation in cultured astrocytes.
as §1

rat pituitary fragments = conditions: in vitro; Arimura et al. 1984; cited from earlier work
neurons [4] = conditions: De Brenneman et al. 1987, 1988; cited from earlier work
[5] = superfused rat pituitary cells, hormone release

CC[C@H](C)[C@H](NC(=O)CNC(=O)[C@H](CC(=O)O)NC(=O)[C@H](CO)NC(=O)[C@@H](N)Cc1c[nH]cn1)C(=O)N[C@@H](Cc1ccccc1)C(=O)N[C@H](C(=O)N[C@@H](CC(=O)O)C(=O)N[C@@H](CO)C(=O)N[C@@H](Cc1ccc(O)cc1)C(=O)N[C@@H](CO)C(=O)N[C@@H](CCCNC(=N)N)C(=O)N[C@@H](Cc1ccc(O)cc1)C(=O)N[C@@H](CCCNC(=N)N)C(=O)N[C@@H](CCCCN)C(=O)N[C@@H](CCC(N)=O)C(=O)N[C@@H](CCSC)C(=O)N[C@@H](C)C(=O)N[C@H](C(=O)N[C@@H](CCCCN)C(=O)N[C@@H](CCCCN)C(=O)N[C@@H](Cc1ccc(O)cc1)C(=O)N[C@@H](CC(C)C)C(=O)N[C@@H](C)C(=O)N[C@@H](C)C(=O)N[C@H](C(=O)N[C@@H](CC(C)C)C(N)=O)C(C)C)C(C)C)[C@@H](C)O [PACAP27NH2]
intracellular cAMP accumulation (extent and pattern) [1]: comparable extent and pattern of cAMP accumulation
ACSA activity compared with native PACAP38 (adenylate cyclase; cAMP in medium after 3 hr incubation): similar, if not greater

CC[C@H](C)[C@H](NC(=O)CNC(=O)[C@H](CC(=O)O)NC(=O)[C@H](CO)NC(=O)[C@@H](N)Cc1c[nH]cn1)C(=O)N[C@@H](Cc1ccccc1)C(=O)N[C@H](C(=O)N[C@@H](CC(=O)O)C(=O)N[C@@H](CO)C(=O)N[C@@H](Cc1ccc(O)cc1)C(=O)N[C@@H](CO)C(=O)N[C@@H](CCCNC(=N)N)C(=O)N[C@@H](Cc1ccc(O)cc1)C(=O)N[C@@H](CCCNC(=N)N)C(=O)N[C@@H](CCCCN)C(=O)N[C@@H](CCC(N)=O)C(=O)N[C@@H](CCSC)C(=O)N[C@@H](C)C(=O)N[C@H](C(=O)N[C@@H](CCCCN)C(=O)N[C@@H](CCCCN)C(=O)N[C@@H](Cc1ccc(O)cc1)C(=O)N[C@@H](CC(C)C)C(=O)N[C@@H](C)C(=O)N[C@@H](C)C(=O)N[C@H](C(=O)N[C@@H](CC(C)C)C(=O)NCC(=O)N[C@@H](CCCCN)C(=O)N[C@@H](CCCNC(=N)N)C(=O)N[C@@H](Cc1ccc(O)cc1)C(=O)N[C@@H](CCCCN)C(=O)N[C@@H](CCC(N)=O)C(=O)N[C@@H](CCCNC(=N)N)C(=O)N[C@H](C(=O)N[C@@H](CCCCN)C(=O)N[C@@H](CC(N)=O)C(=O)N[C@@H](CCCCN)C(N)=O)C(C)C)C(C)C)C(C)C)[C@@H](C)O [PACAP38]
intracellular cAMP accumulation (extent and pattern) [1]: comparable extent and pattern of cAMP accumulation
FSH release ([2]; 3 min pulse, 10^-10 to 10^-6 M): not altered; also recorded: not apparent
LH release ([2]; 3 min pulse, 10^-10 to 10^-6 M): LH response was linear
TSH release ([2]; 3 min pulse, 10^-10 to 10^-6 M): not altered; also recorded: not apparent
dose of maximum effect (bell-shaped dose response curve) [2, 5]: 10^-8 M
minimum effective dose [2, 5]: 10^-10 M
depressor activity (arterial blood pressure; anesthetized rats, injection into femoral vein): significant, but somewhat weaker
vasodepressor activity (arterial blood pressure): comparable vasodepressor activity
time after which intracellular cAMP began to decrease, neurons (neurons [3]; 10^-9 M): 10 min
time of first cAMP increase after addition, neurons (neurons [3]; 10^-9 M): as early as one minute
intracellular cAMP response in neurons (neurons [3]): increased intracellular cAMP
time intracellular cAMP levels remained elevated, astrocytes (astrocytes; 10^-9 M): at least 60 minutes
time of first cAMP increase after addition, astrocytes (astrocytes; 10^-9 M): as early as one minute
intracellular cAMP response in astrocytes (astrocytes): extraordinarily large
adenylate cyclase stimulating activity relative to VIP (adenylate cyclase; fold of VIP): at least 100 times

CRH: known hypothalamic releasing hormone (corticotropic releasing hormone) used for comparison (SEEPPISLDLTFHLLREVLEMARAEQLAQQAHSNRKLMEII; ends and bridges not checked; UniProt P06850 154-194, looked up)
intracellular cAMP accumulation (extent and pattern) [1]: comparable extent and pattern of cAMP accumulation

HP: ovine hypothalamic peptide, partial N-terminal sequence His-Ser-Asp-Gly-Ile-Phe-Thr-Asp-Ser-Tyr-Lys-Arg-Tyr-Asn-Lys-Glu-Met-Ala-Lys- (HSDGIFTDSYKRYNKEMAK; printed: His-Ser-Asp-Gly-Ile-Phe-Thr-Asp-Ser-Tyr-Lys-Arg-Tyr-Asn-Lys-Glu-Met-Ala-Lys-)
GH release from rat pituitary fragments (rat pituitary fragments): stimulated GH release

growth hormone releasing hormone (YADAIFTNSYRKVLGQLSARKLLQDIMSRQQGESNQERGARARL; ends and bridges not checked; UniProt P01286 32-75, looked up) [GRH]
intracellular cAMP accumulation (extent and pattern) [1]: greatest accumulation of intracellular cAMP

vasoactive intestinal peptide [VIP, reference compound]
intracellular cAMP accumulation (extent and pattern) [1]: little effect
vasodepressor activity (arterial blood pressure): comparable vasodepressor activity
intracellular cAMP response in neurons (neurons [3]): did not induce an appreciable stimulation of cAMP
intracellular cAMP response in astrocytes (astrocytes): did not induce an appreciable stimulation of cAMP
protection of neurons from gp120-induced cell death (neurons [4]): capable of protecting neurons from cell death
